7 compounds from patent publication US10172378B2, “Mono- or bicyclic carboxylic acids as off-note blockers” (Givaudan, S.A., priority 2007, dated 2019) can be followed below.

For this test, the target named is T1, human TAS2R44 bitter taste receptor (Homo sapiens, UniProt P59538, L162M).
T1 construct: The TAS2R44 construct contains RSS tag, TAS2R44, and the HSV tag which are fused in frame; expressed in transfected cells; host or cells: HEK293T cells stably expressing Galpha16-gustducin44
T1 sequence (P59538 with tags, fused parts or gaps L162M): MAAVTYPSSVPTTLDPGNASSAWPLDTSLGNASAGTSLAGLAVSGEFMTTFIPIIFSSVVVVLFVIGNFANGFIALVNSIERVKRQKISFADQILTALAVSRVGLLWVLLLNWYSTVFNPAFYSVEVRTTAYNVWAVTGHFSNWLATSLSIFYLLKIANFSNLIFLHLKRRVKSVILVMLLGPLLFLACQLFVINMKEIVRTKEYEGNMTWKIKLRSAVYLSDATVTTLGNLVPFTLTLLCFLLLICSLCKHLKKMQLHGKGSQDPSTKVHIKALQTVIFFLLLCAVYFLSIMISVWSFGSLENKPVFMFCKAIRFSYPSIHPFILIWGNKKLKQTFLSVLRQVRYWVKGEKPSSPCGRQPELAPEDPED
Put plainly: TAS2R44 bitter taste receptor Fluo-4 calcium assay for IC50 determination. Format: cell-based. The method, then:
A taste receptor screen and concentration-response analysis was performed and from results inhibitory concentration (IC) IC50 values can be calculated by nonlinear regression using the function f(x)=(a−d)/(1+(x/C)^nh)+d; with a=minimum signal, d=maximum signal, nh=hill coefficient, C=IC50 and x=concentration of antagonist. IC50 is the molar concentration of an antagonist which produces 50% of the maximum possible inhibitory response for that antagonist.
TAS2R44 Bitter Taste Receptor Assay for IC 50 Determination
The full length gene of human TAS2R44 was amplified by polymerase chain reaction (PCR) using gene-specific primers that span the entire coding region as described in WO 2004/029087.
The TAS2R44 cDNA was subcloned into an expression cassette based on either of the following plasmids/expression vectors: pcDNA3.1Zeo (Invitrogen). These vectors contain within their multiple cloning sites the nucleotide sequence coding for the first 45 amino acids of the rat somatostatin receptor subtype 3 (RSS tag) to facilitate cell surface targeting of the transgene (SEQ ID #4) and the nucleotide sequence coding for the herpes simplex virus (HSV) glycoprotein D epitope (HSV epitope in aminoterminal to carboxyterminal direction, HSV tag). (SEQ ID #3) for facilitating immunocytochemical detection.
The TAS2R44 construct contains RSS tag, TAS2R44, and the HSV tag which are fused in frame to allow translation into the receptor protein and the resulting receptor cDNA.
This transfected expression vector is called pcDNA3.1Zeo-TAS2R44 (SEQ ID #1) and allows for expression of the TAS2R44 protein (SEQ ID #2).
A cell line that stably expresses the human bitter taste receptor (TAS2R44) was generated by transfecting pcDNA3.1Zeo-TAS2R44 into HEK293T/Gα16-gustducin 44 cells (both formed as described in under 1) above). The host cell line HEK-293T is commercially available from the American […] (catalog #CRL-1573).
On day 0, the HEK293T Gα16-gustducin44 cells were seeded in a 6-well plate at a density of 900,000 cells per well and grown over night in selective growth medium (DMEM with 10% (v/v) heat-inactivated fetal bovine serum, 2 mM L-glutamine, 100 units/ml penicillin, 100 μg/ml streptomycin, 200 μg/ml G418 and 200 μg/ml zeocin). On day 1, the medium was exchanged with 2 ml of antibiotic-free and serum-free growth medium. 10 μl Lipofectamine 2000 was dissolved in 250 μl DMEM and incubated for 5 minutes at room temperature. In parallel, 4 μg TAS2R44 vector DNA were dissolved in 250 μl DMEM. These two resulting solutions are mixed and incubated for 20 minutes at room temperature before they are added to the cells into the cell culture medium. After 4 hours, the medium is replaced with antibiotic-free, serum-containing growth medium.
Fluo-4_AM (Invitrogen) is a fluorescent indicator of intracellular calcium dynamics (change in concentration) and allows monitoring changes in the calcium concentration, particularly an increase in response to receptor activation occurring after agonist exposure.
At day 0, the HEK293T cell line stably expressing Gα16-gustducin44 and TAS2R44 formed as described under 2) was seeded in antibiotic-free growth medium (standard DMEM with 10% (v/v) heat-inactivated fetal bovine serum, 2 mM L-glutamine […]) into black wall/clear bottom 96-well plates, coated with poly(ethylenimine) (0.005% v/v) at a concentration of 15,000 cells per well and incubated for 48 hours in humidified atmosphere (37° C., 5% CO2).
At the time of the assay, the growth medium was discarded and the cells were further incubated in a humidified atmosphere (37° C., 5% CO2) for 1 hour with 50 μl of loading buffer consisting of 1.5 μM Fluo-4 AM and […] (Sigma-Aldrich) in DMEM. […]

Where [1] appears, read: agonist not stated, read-out: IC50 when tested with the TAS2R44 bitter taste receptor.
The mark [2] stands for this setting: Acesulfame K (0.8 mM) as agonist, same range as example 3.
The mark [3] stands for this setting: saccharin (0.5 mM) as agonist, HEK293T cells expressing Gα16-gustducin44 and TAS2R44, read-out: IC50.

Like-named read-outs stand apart in the source and are kept apart here.

As for `CC(C)CCC[C@H]1CC[C@@H](C(=O)O)CC1` [cis-4-(4-methylpentyl)cyclohexanecarboxylic acid], the concentration for half-maximal inhibition (IC50) under setting [1] lay in the range of 0.1 to 20 µM. Still for that read-out and setting: the figure for `O=C(O)[C@H]1CC[C@@H](Cc2ccccc2)CC1` [cis-4-benzylcyclohexanecarboxylic acid] is 0.1 to 20 µM; for `O=C(O)[C@H]1CC[C@@H](c2ccccc2)CC1` [cis-4-phenylcyclohexanecarboxylic acid] it is 0.1 to 20 µM.

For `CCC[C@]12CC[C@](C(=O)O)(CC1)CC2` [cis-4-propylbicyclo[2.2.2]octane-1-carboxylic acid], the IC50 under setting [1] lay in the range of 0.1 to 20 µM.

Take `CCC[C@H]1CC[C@@H](C(=O)O)CC1` [cis-4-propylcyclohexanecarboxylic acid]: the IC50 entry by setting is: under setting [2], “within the same range”; under setting [1], 0.1 to 20 µM; under setting [3], 0.05 to 25 µM.

As for `CCC(C)[C@H]1CC[C@@H](C(=O)O)CC1` (stereo partly drawn) [cis-4-sec-butylcyclohexanecarboxylic acid], the IC50 under setting [1] is 0.1 to 20 µM. Consider `CC(C)(C)[C@H]1CC[C@@H](C(=O)O)CC1` [cis-4-tert-butylcyclohexanecarboxylic acid], for which the IC50 entry is, setting by setting: under setting [2], “within the same range”; under setting [1], 0.1 to 20 µM; under setting [3], 0.05 to 25 µM.

What is called IC50 is the point on the concentration scale where inhibition reaches its midpoint.
